The first assay deals with 5-HT2A receptor (Homo sapiens (Human), UniProt P28223). The assay is described as follows: Receptor Selection and Amplification (R-SAT) functional antagonist assay.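 Also: Read-out is β-galactosidase marker gene activity with ONPG substrate, measured after five days of growth in 96-well plates holding the test compound.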
Sequence of 5-HT2A receptor (P28223 whole entry): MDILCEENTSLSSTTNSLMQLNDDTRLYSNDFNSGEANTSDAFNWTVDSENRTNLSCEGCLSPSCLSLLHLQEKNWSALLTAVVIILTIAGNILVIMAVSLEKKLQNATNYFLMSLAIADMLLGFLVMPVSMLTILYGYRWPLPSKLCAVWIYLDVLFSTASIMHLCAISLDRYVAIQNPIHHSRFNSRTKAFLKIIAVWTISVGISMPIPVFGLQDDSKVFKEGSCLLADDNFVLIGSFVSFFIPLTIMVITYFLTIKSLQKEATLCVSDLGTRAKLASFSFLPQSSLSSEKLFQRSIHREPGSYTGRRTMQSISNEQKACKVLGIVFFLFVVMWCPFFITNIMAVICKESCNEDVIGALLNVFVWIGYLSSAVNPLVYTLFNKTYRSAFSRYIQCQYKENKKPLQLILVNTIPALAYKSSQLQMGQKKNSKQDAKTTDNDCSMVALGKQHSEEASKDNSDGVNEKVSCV
Settings: not given
Turning to `CC(C)Oc1ccc(COC(=O)N(Cc2ccc(F)cc2)[C@H]2CCNC[C@H]2F)cc1` (racemic) [3a/3b, [4-(propan-2-yloxy)phenyl]methyl N-[(4-fluorophenyl)methyl]-N-[(3R,4S)-3-fluoropiperidin-4-yl]carbamate (3a) and [4-(propan-2-yloxy)phenyl]methyl N-[(4-fluorophenyl)methyl]-N-[(3S,4R)-3-fluoropiperidin-4-yl]carbamate (3b)], the Ki – broadly, a dissociation constant, usually derived from enzyme kinetics or from competition with a known ligand – was 0.1 nM. In other words, the sub-nanomolar range.
On the same count and under the same terms, the result for `CC(C)Oc1ccc(COC(=O)N(Cc2ccc(F)cc2)[C@H]2CCN(C)C[C@H]2F)cc1` (racemic) [4a/4b, [4-(propan-2-yloxy)phenyl]methyl N-[(3R,4S)-3-fluoro-1-methylpiperidin-4-yl]-N-[(4-fluorophenyl)methyl]carbamate (4a) and [4-(propan-2-yloxy)phenyl]methyl N-[(3S,4R)-3-fluoro-1-methylpiperidin-4-yl]-N-[(4-fluorophenyl)methyl]carbamate (4b)] reads 0.1 nM; that for `CC(C)COc1ccc(COC(=O)N(Cc2ccc(F)cc2)[C@H]2CCNC[C@H]2F)cc1` (racemic) [5a/5b, [4-(2-methylpropoxy)phenyl]methyl N-[(4-fluorophenyl)methyl]-N-[(3R,4S)-3-fluoropiperidin-4-yl]carbamate (5a) and [4-(2-methylpropoxy)phenyl]methyl N-[(4-fluorophenyl)methyl]-N-[(3S,4R)-3-fluoropiperidin-4-yl]carbamate (5b)], 0.251 nM; that for `CC(C)COc1ccc(COC(=O)N(Cc2ccc(F)cc2)[C@H]2CCN(C)C[C@H]2F)cc1` (racemic) [6a/6b, [4-(2-methylpropoxy)phenyl]methyl N-[(3R,4S)-3-fluoro-1-methylpiperidin-4-yl]-N-[(4-fluorophenyl)methyl]carbamate (6a) and [4-(2-methylpropoxy)phenyl]methyl N-[(3S,4R)-3-fluoro-1-methylpiperidin-4-yl]-N-[(4-fluorophenyl)methyl]carbamate (6b)], 0.251 nM.
In turn, `CC(C)COc1ccc(CCOC(=O)N(Cc2ccc(F)cc2)[C@H]2CCNC[C@H]2F)cc1` (racemic) [9a/9b, 2-[4-(2-methylpropoxy)phenyl]ethyl N-[(4-fluorophenyl)methyl]-N-[(3R,4S)-3-fluoropiperidin-4-yl]carbamate; trifluoroacetic acid (9a) and 2-[4-(2-methylpropoxy)phenyl]ethyl N-[(4-fluorophenyl)methyl]-N-[(3S,4R)-3-fluoropiperidin-4-yl]carbamate; trifluoroacetic acid (9b)] had a Ki of 63.1 nM.
On the same count and under the same terms, to `CC(C)COc1ccc(CCOC(=O)N(Cc2ccc(F)cc2)[C@H]2CCN(C)C[C@H]2F)cc1` (racemic) [10a/10b, 2-[4-(2-methylpropoxy)phenyl]ethyl N-[(3R,4S)-3-fluoro-1-methylpiperidin-4-yl]-N-[(4-fluorophenyl)methyl]carbamate (10a) and 2-[4-(2-methyl-propoxy)phenyl]ethyl N-[(3S,4R)-3-fluoro-1-methylpiperidin-4-yl]-N-[(4-fluorophenyl)-methyl]carbamate (10b)] belongs 15.8 nM.
As for `CC(C)Oc1ccc(COC(=O)N(Cc2ccc(F)cc2F)C2CCNCC2)cc1.O=C(O)C(F)(F)F` [Compound 11, [4-(propan-2-yloxy)phenyl]methyl N-[(2,4-difluorophenyl)methyl]-N-(piperidin-4-yl)carbamate], the “5-HT2a pKi” value is on record as 9.6.
`CC(C)Oc1ccc(COC(=O)N(Cc2ccc(F)cc2)[C@H]2CCN3CCC[C@H]3C2)cc1` [Compound 18, [4-(propan-2-yloxy)phenyl]methyl N-[(7S,8aS)-octahydroindolizin-7-yl]-N-[(4-fluorophenyl)methyl]carbamate] had an inhibition constant (Ki) of 0.0158 nM.
In the case of `CCOc1ccc(CC(=O)N(Cc2ccc(F)cc2F)C2CCN(C)CC2)cc1.O=C(O)C(F)(F)F` [Compound 23, N-(2,4-difluorobenzyl)-2-(4-ethoxyphenyl)-N-(1-methylpiperidin-4-yl)acetamide; trifluoroacetic acid], the “5-HT2a pKi” value was 7.8.
For the compound `CCCCOc1ccc(CC(=O)N(Cc2ccc(F)cc2F)C2CCN(C)CC2)cc1.O=C(O)C(F)(F)F` [Compound 24, N-(2,4-difluorobenzyl)-2-(4-butoxyphenyl)-N-(1-methylpiperidin-4-yl)acetamide trifluoroacetic acid], the “5-HT2a pKi” value was 7.2.
On to `CN1CCC(N(Cc2ccc(F)cc2F)C(=O)OCc2ccc(OCCCF)cc2)CC1.O=C(O)C(F)(F)F` [Compound 27, 4-(3-fluoropropoxy)benzyl (2,4-difluorobenzyl)(1-methylpiperidin-4-yl)carbamate; trifluoroacetic acid], for which the “5-HT2a pKi” value was determined as 9.8.
Take `CN1CCC(N(Cc2ccc(F)cc2F)C(=O)OCc2ccc(OC(CF)CF)cc2)CC1.O=C(O)C(F)(F)F` [Compound 28, 4-((1,3-difluoropropan-2-yl)oxy)benzyl (2,4-difluorobenzyl)(1-methylpiperidin-4-yl)carbamate; trifluoroacetic acid]: the “5-HT2a pKi” value is 10.1.
Regarding `CC(C)COc1ccc(CC(=O)N(Cc2ccc(Cl)cc2F)C2CCN(C)CC2)cc1.O=C(O)C(F)(F)F` [Compound 31, N-[(4-chloro-2-fluorophenyl)methyl]-N-(1-methylpiperidin-4-yl)-2-[4-(2-methylpropoxy)phenyl]acetamide; trifluoroacetic acid], the “5-HT2a pKi” value came to 7.3.

The assay is the same for the next values; noted with them: R-SAT, transfected NIH3T3 cells; guidance: high affinity pKi≥8.4, moderate affinity pKi≥7.7.
As for `CC(C)Oc1ccc(COC(=O)N(Cc2ccc(Cl)cc2)C2CCN(C)CC2)cc1` [Compound 1, [4-(propan-2-yloxy)phenyl]methyl N-[(4-chlorophenyl)methyl]-N-(1-methylpiperidin-4-yl)carbamate], the “5-HT2a pKi” value was found to be 9.7.
Consider `CC(C)COc1ccc(COC(=O)N(Cc2ccc(F)cc2)C2CCN(C)CC2)cc1` [Compound 2, [4-(2-methylpropoxy)phenyl]methyl N-[(4-fluorophenyl)methyl]-N-(1-methylpiperidin-4-yl)carbamate], for which the “5-HT2a pKi” value was found to be 9.9.
With `CC(C)Oc1ccc(COC(=O)N(Cc2ccc(F)cc2)C2CCN(C)CC2)cc1` [Compound 12, [4-(propan-2-yloxy)phenyl]methyl N-[(4-fluorophenyl)methyl]-N-(1-methylpiperidin-4-yl)carbamate], the “5-HT2a pKi” value was 9.6.
Same read-out and setting: the result for `CC(C)Oc1ccc(COC(=O)N(Cc2ccc(F)cc2F)C2CCN(C)CC2)cc1` [Compound 13, [4-(propan-2-yloxy)phenyl]methyl N-[(2,4-difluorophenyl)methyl]-N-(1-methylpiperidin-4-yl)carbamate] reads 9.9.
Turning to `CC(C)COc1ccc(COC(=O)N(Cc2ccc(F)cc2F)C2CCN(C)CC2)cc1` [Compound 14, [4-(2-methylpropoxy)phenyl]methyl N-[(2,4-difluorophenyl)methyl]-N-(1-methylpiperidin-4-yl)carbamate], the “5-HT2a pKi” value amounted to 7.6.
As for `COc1ccc(COC(=O)N(Cc2ccc(F)cc2F)C2CCN(C)CC2)cc1` [Compound 15, (4-methoxyphenyl)methyl N-[(2,4-difluorophenyl)methyl]-N-(1-methylpiperidin-4-yl)carbamate], the “5-HT2a pKi” value is 9.3.
For the compound `COc1ccc(CSC(=O)N(Cc2ccc(F)cc2F)C2CCN(C)CC2)cc1` [Compound 16, N-[(2,4-difluorophenyl)methyl]-N-(1-methylpiperidin-4-yl){[(4-methoxyphenyl)methyl]sulfanyl}formamide], the “5-HT2a pKi” value amounted to 7.6.
In the case of `CC(C)Oc1ccc(C(OC(=O)N(Cc2ccc(F)cc2)C2CCN(C)CC2)C(F)(F)F)cc1` (centres unmarked) [Compound 17, 2,2,2-trifluoro-1-[4-(propan-2-yloxy)phenyl]ethyl N-[(4-fluorophenyl)methyl]-N-(1-methylpiperidin-4-yl)carbamate], the “5-HT2a pKi” value is reported as 7.5.
For `CC(C)Oc1ccc(CC(=O)N(Cc2ccc(F)cc2F)C2CCN(C)CC2)cc1.O=C(O)C(F)(F)F` [Compound 19, N-[(2,4-difluorophenyl)methyl]-N-(1-methylpiperidin-4-yl)-2-[4-(propan-2-yloxy)phenyl]acetamide; trifluoroacetic acid], the “5-HT2a pKi” value worked out at 8.3.
Take `CC(C)COc1ccc(CC(=O)N(Cc2ccc(F)cc2)C2CCN(C)CC2)c(F)c1.O=C(O)C(F)(F)F` [Compound 20, 2-[2-fluoro-4-(2-methylpropoxy)phenyl]-N-[(4-fluorophenyl)methyl]-N-(1-methylpiperidin-4-yl)acetamide; trifluoroacetic acid]: the “5-HT2a pKi” value was 8.2.
Take `CC(C)COc1ccc(CC(=O)N(Cc2ccc(F)cc2)C2CCN(C)CC2)cc1F.O=C(O)C(F)(F)F` [Compound 21, 2-[3-fluoro-4-(2-methylpropoxy)phenyl]-N-[(4-fluorophenyl)methyl]-N-(1-methylpiperidin-4-yl)acetamide; trifluoroacetic acid]: the “5-HT2a pKi” value is 8.6.
On the same count and under the same terms, the result for `CC(C)COc1ccc(CC(=O)N(Cc2ccc(F)cc2F)C2CCN(C)CC2)cc1.O=C(O)C(F)(F)F` [Compound 22, N-(2,4-difluorobenzyl)-2-(4-isobutoxyphenyl)-N-(1-methylpiperidin-4-yl)acetamide; trifluoroacetic acid] reads 8.2; that for `CCOc1ccc(COC(=O)N(Cc2ccc(F)cc2F)C2CCN(C)CC2)cc1` [Compound 25, 4-ethoxybenzyl (2,4-difluorobenzyl)(1-methylpiperidin-4-yl)carbamate], 9.7; that for `C=CCOc1ccc(COC(=O)N(Cc2ccc(F)cc2F)C2CCN(C)CC2)cc1` [Compound 26, 4-(allyloxy)benzyl (2,4-difluorobenzyl)(1-methylpiperidin-4-yl)carbamate], 9.3.
Consider `CN1CCC(N(Cc2ccc(F)cc2F)C(=O)OCc2ccc(OCC(C)(C)O)cc2)CC1` [Compound 29, 4-(2-hydroxy-2-methylpropoxy)benzyl (2,4-difluorobenzyl)(1-methylpiperidin-4-yl)carbamate], for which the “5-HT2a pKi” value is listed as 10.2.
The same measure, in the same setting: to `CN1CCC(N(Cc2ccc(F)cc2F)C(=O)OCc2ccc(OC3CC3)cc2)CC1` [Compound 30, 4-cyclopropoxybenzyl (2,4-difluorobenzyl)(1-methylpiperidin-4-yl)carbamate] belongs 10.5.

The values are drawn from US11440884B2, “Compounds, salts thereof and methods for treatment of diseases” (ACADIA PHARMACEUTICALS INC., priority 2017, dated 2022).
